Here are results for five compounds from patent US20260083751A1, “ALLOSTERIC MODULATORS OF ANDROGEN RECEPTOR COACTIVATOR RECRUITMENT FOR CRPC THERAPY” (University of Pittsburgh – Of the Commonwealth System of …, priority 2022, published 2026).

The structures appear in SMILES notation.

This test concerns the target T1, AR-TIF2 PPI (Homo sapiens, UniProt P10275).
T1 construct: AR-LBD residues (662-919) were incorporated into one biosensor; expressed in transfected cells; host or cells: U-2 OS osteosarcoma cells, coinfected with recombinant adenoviruses
T1 sequence (P10275 662-919): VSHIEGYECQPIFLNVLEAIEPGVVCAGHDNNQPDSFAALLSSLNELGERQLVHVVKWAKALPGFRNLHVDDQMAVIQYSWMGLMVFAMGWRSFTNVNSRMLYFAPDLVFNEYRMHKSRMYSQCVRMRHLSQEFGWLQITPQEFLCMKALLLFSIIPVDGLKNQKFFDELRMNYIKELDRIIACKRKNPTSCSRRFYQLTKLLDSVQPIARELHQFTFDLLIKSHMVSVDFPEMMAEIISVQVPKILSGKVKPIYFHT
Put plainly: AR-TIF2 PPIB assay, both formats stated jointly. It counts as cell-based. Particulars: for Fold reduction in relative potency in both AR-TIF2 PPIB assay formats: analog versus its parent hit; for IC50: both assay formats, read-out: AR-TIF2 PPI inhibitor/disruptor IC50s. On the procedure: AR-TIF2 Protein-Protein Interaction Biosensor Assay: The AR-TIF2 PPIB HCS assay was performed in U-2 OS osteosarcoma cells as described previously (Fancher et al., Assay Drug Dev Technol. 2016, 14:453-477; Fancher et al., Assay Drug Dev Technol. 2018, 16:297-319; Hua et al., Assay Drug Dev Technol. 2014, 12:395-418; Hua et al., Methods Mol Biol. 2018, 1683:211-227). Briefly, U-2 OS cells were coinfected with recombinant adenovirus biosensor expression constructs and seeded at 2,500 cells per well in 384-well collagen-coated microplates (Greiner Bio-One #781956) and plates were incubated overnight at 37° C. in 5% CO2 and 95% humidity. […] After the appropriate time, assay plates were fixed by transfer of 50 μL of pre-warmed (37° C.) 7.4% formaldehyde and 2 μg/mL Hoechst 33342 in PBS and incubation at room temperature for 30 minutes. Liquid was aspirated, plates were washed twice with 85 μL PBS, leaving the final wash in the plate. Plates were sealed with adhesive aluminum plate seals, and fluorescent images of three fields of view were acquired in the DAPI (Hoechst stained nuclei), FITC (TIF2-GFP) and Texas Red (AR-RFP) channels on an ImageXpress® Micro (IXM) automated HCS platform (Molecular Devices LLC, Sunnyvale, CA) using a 10× Plan Fluor 0.3 NA objective. Images were analyzed using the Translocation Enhanced (TE) image analysis module of the MetaXpress® software (Molecular Devices, LLC, San Jose, CA) as described previously (Fancher et al., Assay Drug Dev Technol. 2016, 14:453-477; Fancher et al., Assay Drug Dev Technol. 2018, 16:297-319; Hua et al., Assay Drug Dev Technol. 2014, 12:395-418; Hua et al., Methods Mol Biol. 2018, 1683:211-227).
A positional AR-TFI2 protein-protein interaction biosensor (PPIB) assay was used to identify small molecules that inhibited DHT-induced formation of AR-TIF2 PPIs and/or disrupted pre-existing AR-TIF2 PPIs (Fancher et al., Assay Drug Dev Technol 2016, 14(8):453-477; Fancher et al., Assay Drug Dev Technol 2018, 16(6):297-319; Hua et al., Assay Drug Dev Technol 2014, 12:395-418; Hua et al., Methods Mol biol 2018, 1683:211-227). AR-LBD residues (662-919) were incorporated into one biosensor and TIF2 residues (725-840) containing the 3rd NR box LXXLL motif into the second interacting biosensor partner (Id.) The AR-TIF2 PPIB recapitulates the orthosteric ligand (OSL)-induced translocation of AR from the cytoplasm into the nucleus where PPIs with TIF2 result in colocalization of both biosensors in the nucleolus. Using three libraries, a total of 143,535 compounds were screened—a 10,000-compound ChemDiv PPI focused diversity library, a 50,000-compound ChemBridge diversity library, and a 83,535-compound library provided by the NCI's Chemical Biology Consortium. The 10K and 50K diversity libraries were subsets of 142K and 810K parent libraries, enabling screening of a representative subset of >1×10^6 compounds. AR-TIF2 PPI inhibitor and disruptor actives were confirmed in the HCS assay and counter screens designed to identify and exclude nuisance/interference or non-selective compounds (Fancher et al., Assay Drug Dev Technol 2018, 16(6):297-319). […] An AR-GFP subcellular localization assay was used to exclude compounds that reduced AR expression and/or restricted its localization to the cytoplasm (Fancher et al., Assay Drug Dev Technol 2018, 16(6):297-319; Johnston et al., Assay Drug Dev Technol 2016, 14:226-239; Masodi et al., Mol Cancer Ther 2017, 16(10):2120-2129). Hits were structurally classified, clustered, and medicinal chemistry computational filters (PAINS/REOS) were used to exclude nuisance compounds and evaluate drug-like properties (Baell, J Med Chem 2010, 53(7):2719-2740; Baell, ACS Chem. Biol. 2018, 13:36-44; Johnston, Curr Opin Chem Biol 2011, 15:174-182; Walters, Adv Drug Deliv Rev 2002, 54:255-271). […]

Turning to `COc1cc(-c2ccc(C)s2)cc2c1OCCN(c1nc(C(N)=O)cs1)C2` [Compound S1-5], the “Fold reduction in relative potency in both AR-TIF2 PPIB assay formats” value worked out at 4 fold.
On the same count and under the same terms, the value for `Cc1nc(N)cc(N2CCOc3c(O)cc(-c4ccccc4C)cc3C2)n1` [Compound S1-2] was around 2 fold.
`Cc1ccccc1-c1cc(O)c2c(c1)CN(c1cc(N)ncn1)CCO2` [Compound S1-4]: the IC50 is above 100 µM.
The same measure, in the same setting: to `Cc1nsc(NC(=O)N2CCC(Cn3ccnc3)CC2)n1` [Compound S2-7] belongs above 100 µM.
With `Cc1c(-c2ccc(F)cc2)[nH]c2ccc(CNC(=O)c3ccc(CO)o3)cc12` [Compound S3-15], the “Fold reduction in relative potency in both AR-TIF2 PPIB assay formats” value is given as around 2 fold.
